Assay results as given in patent publication US4189484A, “Antihypertensive quinazoline derivatives” (priority 1977, dated 1980).

Tested on: spontaneously hypertensive rats (SHR)
Assay: Antihypertensive effect, oral administration to spontaneously hypertensive rats (mean blood pressure and heart rate)
Assay type: in vivo, rat
Conditions: SHR, p.o.; for Changes in average blood pressures after administration: Table 3; for Change in blood pressure after 3 hrs. from administration: Table 1
Procedure: Antihypertensive effect was determined by oral administration of the test compound to spontaneously hypertensive rats (hereinafter referred to as SHR).
These SHR were anesthetized with ether and chronically embedded with a cannula for determination of blood pressure so that one end of the said cannula may be placed in abdominal aorta and the other end thereof may be projected out of dorsal neck. When rats regained their body weight before operation in more than 1 week from operation, the test compound was given. Determination was made by measuring a mean blood pressure and a heart rate under unanesthetized and unrestrained conditions with the cannula connected to an electronic recording system. The test compound was suspended in a 1% tragacanth gum solution to make up a concentration so as to be a volume of 5 ml./kg. and then orally given.

| Compound | Changes in average blood pressures after administration (3 mg./kg., 1 hr.) | Changes in average blood pressures after administration (3 mg./kg., 3 hrs.) | Changes in average blood pressures after administration (3 mg./kg., 6 hrs.) | Changes in average blood pressures after administration (3 mg./kg., 24 hrs.) | Change in blood pressure after 3 hrs. from administration (10 mg./kg., 3 hrs.) | also measured |
| --- | --- | --- | --- | --- | --- | --- |
| 2-{4-[3-(5-Chlorothiophen-2-yl)-acryloyl]-piperazin-1-yl}-4-amino-6,7-dimethoxyquinazoline [compound 42] | -6 mmHg | -6 mmHg | -7 mmHg | -2 mmHg |  |  |
| COc1cc2nc(N3CCN(C(=O)C=Cc4ccccc4C)CC3)nc(N)c2cc1OC [compound 2, 2-[4-(2-Methylcinnamoyl)-piperazin-1-yl]-4-amino-6,7-dimethoxyquinazoline] |  |  |  |  | -43 mmHg |  |
| COc1cc2nc(N3CCN(C(=O)C=Cc4cccc(C)c4)CC3)nc(N)c2cc1OC [compound 3, 2-[4-(3-Methylcinnamoyl)-piperazin-1-yl]-4-amino-6,7-dimethoxyquinazoline] |  |  |  |  | -35 mmHg |  |
| COc1cc2nc(N3CCN(C(=O)C=Cc4ccc(C)cc4)CC3)nc(N)c2cc1OC [compound 4, 2-[4-(4-Methylcinnamoyl)-piperazin-1-yl]-4-amino-6,7-dimethoxyquinazoline] |  |  |  |  | -18 mmHg |  |
| COc1cccc(C=CC(=O)N2CCN(c3nc(N)c4cc(OC)c(OC)cc4n3)CC2)c1 [compound 7, 2-[4-(3-Methoxycinnamoyl)-piperazin-1-yl]-4-amino-6,7-dimethoxyquinazoline] |  |  |  |  | -18 mmHg |  |
| COc1cc(C=CC(=O)N2CCN(c3nc(N)c4cc(OC)c(OC)cc4n3)CC2)cc(OC)c1 [compound 13, 2-[4-(3,5-Dimethoxycinnamoyl)-piperazin-1-yl]-4-amino-6,7-dimethoxyquinazoline] |  |  |  |  | -12 mmHg |  |
| COc1cc2nc(N3CCN(C(=O)C=Cc4ccc(OC)c(OC)c4OC)CC3)nc(N)c2cc1OC [compound 14, 2-[4-(2,3,4-Trimethoxycinnamoyl)-piperazin-1-yl]-4-amino-6,7-dimethoxyquinazoline] |  |  |  |  | -22 mmHg |  |
| C=CCOc1ccc(C=CC(=O)N2CCN(c3nc(N)c4cc(OC)c(OC)cc4n3)CC2)cc1 [compound 17, 2-[4-(4-Allyloxycinnamoyl)-piperazin-1-yl]-4-amino-6,7-dimethoxyquinazoline] |  |  |  |  | -18 mmHg |  |
| COc1cc2nc(N3CCN(C(=O)C=Cc4ccc(Br)cc4)CC3)nc(N)c2cc1OC [compound 21, 2-[4-(4-Bromocinnamoyl)-piperazin-1-yl]-4-amino-6,7-dimethoxyquinazoline] |  |  |  |  | -22 mmHg |  |
| COc1cc2nc(N3CCN(C(=O)C=Cc4cccc(C(F)(F)F)c4)CC3)nc(N)c2cc1OC [compound 22, 2-[4-(3-Trifluoromethylcinnamoyl)-piperazin-1-yl]-4-amino-6,7-dimethoxyquinazoline] |  |  |  |  | -10 mmHg |  |
| COc1cc2nc(N3CCN(C(=O)C=Cc4ccc(N(C)C)cc4)CC3)nc(N)c2cc1OC [compound 23, 2-[4-(4-Dimethylaminocinnamoyl)-piperazin-1-yl]-4-amino-6,7-dimethoxyquinazoline] |  |  |  |  | -15 mmHg |  |
| COc1cc2nc(N3CCN(C(=O)C=Cc4ccoc4)CC3)nc(N)c2cc1OC [compound 29, 2-{4-[3-(Furan-3-yl)-acryloyl]-piperazin-1-yl]-4-amino-6,7-dimethoxyquinazoline] |  |  |  |  |  | Changes in average blood pressures after administration (1 mg./kg., 1 hr.): -25 mmHg; Changes in average blood pressures after administration (1 mg./kg., 3 hrs.): -28 mmHg; Changes in average blood pressures after administration (1 mg./kg., 6 hrs.): -37 mmHg; Changes in average blood pressures after administration (1 mg./kg., 24 hrs.): -17 mmHg |
| COc1cc2nc(N3CCN(C(=O)C=Cc4ccc(C)o4)CC3)nc(N)c2cc1OC [compound 30, 2-{4-[3-(5-Methylfuran-2-yl)-acryloyl]-piperazin-1-yl}-4-amino-6,7-dimethoxyquinazoline] |  |  |  |  |  | Changes in average blood pressures after administration (1 mg./kg., 1 hr.): -13 mmHg; Changes in average blood pressures after administration (1 mg./kg., 3 hrs.): -12 mmHg; Changes in average blood pressures after administration (1 mg./kg., 6 hrs.): -15 mmHg; Changes in average blood pressures after administration (1 mg./kg., 24 hrs.): 0 mmHg |
| COc1cc2nc(N3CCN(C(=O)C(C)=Cc4ccco4)CC3)nc(N)c2cc1OC [compound 31, 2-{4-[2-Methyl-3-(furan-2-yl)-acryloyl]-piperazin-1-yl}-4-amino-6,7-dimethoxyquinazoline] |  |  |  |  |  | Changes in average blood pressures after administration (1 mg./kg., 1 hr.): -22 mmHg; Changes in average blood pressures after administration (1 mg./kg., 3 hrs.): -23 mmHg; Changes in average blood pressures after administration (1 mg./kg., 6 hrs.): -24 mmHg; Changes in average blood pressures after administration (1 mg./kg., 24 hrs.): -6 mmHg |
| COc1cc2nc(N3CCN(C(=O)C=Cc4ccc([N+](=O)[O-])o4)CC3)nc(N)c2cc1OC [compound 33, 2-{4-[3-(5-Nitrofuran-2-yl)-acryloyl]-piperazin-1-yl}-4-amino-6,7-dimethoxyquinazoline] | -15 mmHg | -20 mmHg | -11 mmHg | 3 mmHg |  |  |
| COc1cc2nc(N3CCN(C(=O)C=Cc4ccc(Cl)o4)CC3)nc(N)c2cc1OC [compound 34, 2-{4-[3-(5-chlorofuran-2-yl)-acryloyl]-piperazin-1-yl}-4-amino-6,7-dimethoxyquinazoline] | -20 mmHg | -26 mmHg | -28 mmHg | 0 mmHg |  |  |
| COc1cc2nc(N3CCN(C(=O)C=Cc4cccs4)CC3)nc(N)c2cc1OC [compound 35, 2-{4-[3-(Thiophen-2-yl)-acryloyl]-piperazin-1-yl}-4-amino-6,7-dimethoxyquinazoline] | -45 mmHg | -27 mmHg | -42 mmHg | -2 mmHg |  | Changes in average blood pressures after administration (1 mg./kg., 1 hr.): -27 mmHg; Changes in average blood pressures after administration (1 mg./kg., 3 hrs.): -25 mmHg; Changes in average blood pressures after administration (1 mg./kg., 6 hrs.): -25 mmHg; Changes in average blood pressures after administration (1 mg./kg., 24 hrs.): 0 mmHg |
| COc1cc2nc(N3CCN(C(=O)C=Cc4ccsc4)CC3)nc(N)c2cc1OC [compound 36, 2-{4-[3-(Thiophen-3-yl)-acryloyl]-piperazin-1-yl}-4-amino-6,7-dimethoxyquinazoline] | -47 mmHg | -30 mmHg | -35 mmHg | 0 mmHg |  | Changes in average blood pressures after administration (1 mg./kg., 1 hr.): -18 mmHg; Changes in average blood pressures after administration (1 mg./kg., 3 hrs.): -20 mmHg; Changes in average blood pressures after administration (1 mg./kg., 6 hrs.): -27 mmHg; Changes in average blood pressures after administration (1 mg./kg., 24 hrs.): 3 mmHg |
| COc1cc2nc(N3CCN(C(=O)C=Cc4sccc4C)CC3)nc(N)c2cc1OC [compound 37, 2-{4-[3-(3-Methylthiophen-2-yl)-acryloyl]-piperazin-1-yl}-4-amino-6,7-dimethoxyquinazoline] | -18 mmHg | -18 mmHg | -18 mmHg | 5 mmHg |  |  |
| COc1cc2nc(N3CCN(C(=O)C=Cc4ccc(C)s4)CC3)nc(N)c2cc1OC [compound 38, 2-{4-[3-(5-Methylthiophen-2-yl)-acryloyl]-piperazin-1-yl}-4-amino-6,7-dimethoxyquinazoline] | -18 mmHg | -27 mmHg | -18 mmHg | -2 mmHg |  |  |
| COc1cc2nc(N3CCN(C(=O)C(C)=Cc4cccs4)CC3)nc(N)c2cc1OC [compound 39, 2-{4-[2-Methyl-3-(thiophen-2-yl)-acryloyl]-piperazin-1-yl}-4-amino-6,7-dimethoxyquinazoline] | -65 mmHg | -27 mmHg | -35 mmHg | -15 mmHg |  | Changes in average blood pressures after administration (1 mg./kg., 1 hr.): -18 mmHg; Changes in average blood pressures after administration (1 mg./kg., 3 hrs.): -12 mmHg; Changes in average blood pressures after administration (1 mg./kg., 6 hrs.): -13 mmHg; Changes in average blood pressures after administration (1 mg./kg., 24 hrs.): 3 mmHg |
| COc1cc2nc(N3CCN(C(=O)C=Cc4ccccn4)CC3)nc(N)c2cc1OC [compound 43, 2-{4-[3-(Pyridin-2-yl)-acryloyl]-piperazin-1-yl}-4-amino-6,7-dimethoxyquinazoline] | -40 mmHg | -22 mmHg | -30 mmHg | 8 mmHg |  | Changes in average blood pressures after administration (10 mg./kg., 1 hr.): -23 mmHg; Changes in average blood pressures after administration (10 mg./kg., 3 hrs.): -22 mmHg; Changes in average blood pressures after administration (10 mg./kg., 6 hrs.): -18 mmHg; Changes in average blood pressures after administration (10 mg./kg., 24 hrs.): -3 mmHg |
| COc1cc2nc(N3CCN(C(=O)C=Cc4cccnc4)CC3)nc(N)c2cc1OC [compound 44, 2-{4-[3-(Pyridin-3-yl)-acryloyl]-piperazin-1-yl}-4-amino-6,7-dimethoxyquinazoline] | -28 mmHg | -15 mmHg | -25 mmHg | 3 mmHg |  |  |
